Measurements from patent publication US20200385371A1 (Propellon Therapeutics Inc., priority 2017, published 2020).
Where a name gives a salt, the structure may show the parent alone. Read-outs that look alike come from different tables or passages of the source.

Legend:
MV4-11 cells = assay: Cell proliferation assay (ATPlite); format: cell-based; conditions: Homo sapiens; for EC50: 120 h, MV4-11 cells, five days, read-out: GI MV411 EC50; for IC50: MV4-11, Table 2
Method: MV4-11 cells were seeded into a 96-well plate at 1,000 cells/well in 150 μl medium (Alpha-MEM containing 10% FBS, 100 μg/ml Normocin, and 50 μg/ml Gentamycin, Invitrogen). A HP D300 digital dispenser was used to dose cells with DMSO or test compounds across a 10-point range of concentrations (high dose of 10 μM), and cultures were grown in a humidified 5% CO2 incubator at 37° C. After five days, plates were removed from incubator and equilibrated to room temperature. An equal volume of ATPlite assay reagent was added to each well, and samples were processed according to manufacturer's instructions (Perkin Elmer). Luminescent signal was measured using an Envision plate reader equipped with a US-Luminescence detector.

WDR5 [1] = biological target: T1, WDR5 (Homo sapiens, UniProt P61964); assay: Fluorescence Polarization (FP) binding assay
Method: H3 (1-15) ([…]), and 9-Ala-FAM ((Ac)-[…]-(Ahx-Ahx)-K(5,6-FAM)) (where Ahx represents 6 amino hexanoic acid linkers) peptides for WDR5 were synthesized, N-terminal-labeled with isothiocyanate-fluorescein, and purified by Tufts University Core Services (Boston, Mass.). Compound binding assays were performed at a constant labeled peptide concentration of 30 or 20 nM for H3 (1-15) and 9-Ala-FAM respectively. WDR5 concentrations of 0.3 μM for H3 (1-15) and 0.05 μM for 9-Ala-FAM were used. For both the H3 (1-15) and 9-Ala-FAM peptides, 80 mM sodium phosphate buffer (pH 6.5), 20 mM KCl, and 0.008% Triton X-100 was used. For the H3 (1-15) peptide, FP assays were measured in 10 μl aliquots in 384-well Axygen plates using a Synergy 4 microplate reader (BioTek) with an excitation wavelength of 485 nm and emission wavelength of 528 nm. For the 9-Ala-FAM peptide, FP assays were measured in 125 μl aliquots in 96 well Microfluor plates using a ViewLux instrument (Perkin Elmer) with an excitation wavelength of 480 nm and emission wavelength of 540 nm. To determine Kdsp values, the data were fit to a hyperbolic function using Sigma Plot software (Systat Software). The Kdisp values represent the average of quadruplicate measurements.

WDR5 [2] = biological target: T1, WDR5; assay: Surface Plasmon Resonance (SPR) assay; format: binding; parameters: Full length WDR5 with an N-terminal His tag and C-terminal AviTag; His tag (N); made in house; host or cells: E. coli
Method: Exemplary compounds of the application were dissolved in 100% DMSO at 10 mM, assayed fresh, and then stored at −20° C. for repeat studies and other experiments. Full length WDR5 with an N-terminal His tag and C-terminal AviTag (Avidity Inc.) was expressed in E. coli with coexpression of BirA to biotin label the protein in vivo. Purification was via Ni-NTA.
SPR studies were performed using a Biacore™ T200 instrument (GE Health Sciences Inc.). Biotinylated WDR5 protein (approximately 3000RU) was stably captured to streptavidin coupled SA chips according to the manufacture's protocol (GE Health Sciences Inc.). The running buffer used was HBS-EP (20 mM Hepes pH 7.4, 150 mM NaCl, 3 mM EDTA, 0.05% P-20) plus 5% DMSO with a flow rate of 40 μl/min. For SPR analysis, 5 different concentrations of each exemplary compound of the application were sprayed into 96 or 384 well plates using an HP D300 digital dispenser. The concentration ranged from about 195 nM to about 12 nM in a two-fold series. […] Curve fitting and KD calculations were performed with the Biacore T200 Evalutation software (GE Health Sciences Inc).

Structure (SMILES)	EC50 (MV4-11 cells)	IC50 (WDR5 [1])	Kd (WDR5 [2]; read-out: SPR Kd)	IC50 (MV4-11 cells)	Kd (WDR5 [2]; Table 2, effect of difluoro substitution, read-out: KD (SPR))
Cc1sc(-c2c(F)cc(N3CCN(C)[C@@H](C)C3)c(NC(=O)c3ccc(F)cc3C(F)F)c2F)nc1C(=O)N1CCCC1 [Example 153, (S)-2-(difluoromethyl)-N-(6-(3,4-dimethylpiperazin-1-yl)-2,4-difluoro-3-(5-methyl-4-(pyrrolidine-1-carbonyl)thiazol-2-yl)phenyl)-4-fluorobenzamide]	70.1 nM	5 nM	1.18 nM		
C[C@H]1CN(c2cc(F)c(C3=CCN(C(=O)c4csc(CN(C)C)n4)CC3)c(F)c2NC(=O)c2c[nH]c(=O)cc2C(F)F)CCN1C [Example 187, (S)-4-(difluoromethyl)-N-(3-(1-(2-((dimethylamino)methyl)thiazole-4-carbonyl)-1,2,3,6-tetrahydropyridin-4-yl)-6-(3,4-dimethylpiperazin-1-yl)-2,4-difluorophenyl)-6-oxo-1,6-dihydropyridine-3-carboxamide]	913 nM	14.7 nM	2.95 nM		
C[C@@H]1CN(c2ccc(-c3c(F)cc(N4C[C@@H](C)N(C)[C@@H](C)C4)c(NC(=O)c4c[nH]c(=O)cc4C(F)F)c3F)cn2)C[C@H](C)O1 [Example 191, 4-(Difluoromethyl)-N-(3-(6-((2S,6R)-2,6-dimethylmorpholino)pyridin-3-yl)-2,4-difluoro-6-((3S,5R)-3,4,5-trimethylpiperazin-1-yl)phenyl)-6-oxo-1,6-dihydropyridine-3-carboxamide]	40.8 nM	10.7 nM	1.07 nM		
C[C@@H]1CN(c2cc(F)c(-c3cnc(N(C)C)nc3)c(F)c2NC(=O)c2c[nH]c(=O)cc2C(F)(F)F)C[C@H](C)N1C [Example 70, N-(3-(2-(dimethylamino)pyrimidin-5-yl)-2,4-difluoro-6-((3S,5R)-3,4,5-trimethylpiperazin-1-yl)phenyl)-6-oxo-4-(trifluoromethyl)-1,6-dihydropyridine-3-carboxamide]	26.7 nM	16.5 nM	0.91 nM		
C[C@@H]1CN(c2cc(F)c(-c3ccc(OC4CCOCC4)nc3)c(F)c2NC(=O)c2c[nH]c(=O)cc2C(F)(F)F)C[C@H](C)N1C [Example 65, N-(2,4-difluoro-3-(6-((tetrahydro-2H-pyran-4-yl)oxy)pyridin-3-yl)-6-((3S,5R)-3,4,5-trimethylpiperazin-1-yl)phenyl)-6-oxo-4-(trifluoromethyl)-1,6-dihydropyridine-3-carboxamide]	33.8 nM	10.2 nM	1.51 nM		
C[C@@H]1CN(c2ncc(-c3c(F)cc(N4CCN(C)[C@@H](C)C4)c(NC(=O)c4ccc(F)cc4C(F)(F)F)c3F)cn2)C[C@@H](C)O1 [Example 167, N-(3-(2-((2R,6R)-2,6-dimethylmorpholino)pyrimidin-5-yl)-6-((S)-3,4-dimethylpiperazin-1-yl)-2,4-difluorophenyl)-4-fluoro-2-(trifluoromethyl)benzamide Formic Acid Salt]	75.5 nM	11.5 nM	0.66 nM		
C[C@@H]1CN(c2cc(F)c(-c3ccc(N4CCOCC4)c(F)c3)c(F)c2NC(=O)c2c[nH]c(=O)cc2C(F)(F)F)C[C@H](C)N1C [Example 9, 6-Oxo-N-(2,3′,6-trifluoro-4′-morpholino-4-((3S,5R)-3,4,5-trimethylpiperazin-1-yl)-[1,1′-biphenyl]-3-yl)-4-(trifluoromethyl)-1,6-dihydropyridine-3-carboxamide]	123 nM	15.3 nM	1.33 nM		
C[C@@H]1CN(c2ccc(-c3c(F)cc(N4CCN(C)[C@@H](C)C4)c(NC(=O)c4ccc(F)cc4C(F)(F)F)c3F)cn2)C[C@H](C)O1 [Example 176, N-(3-(6-((2S,6R)-2,6-dimethylmorpholino)pyridin-3-yl)-6-((S)-3,4-dimethylpiperazin-1-yl)-2,4-difluorophenyl)-4-fluoro-2-(trifluoromethyl)benzamide]	139 nM	19.8 nM	1.46 nM		
C[C@@H]1CN(c2nccc(-c3c(F)cc(N4CCN(C)[C@@H](C)C4)c(NC(=O)c4cn(C)c(=O)cc4C(F)(F)F)c3F)n2)C[C@H](C)O1 [Example 56, N-(3-(2-((2S,6R)-2,6-dimethylmorpholino)pyrimidin-4-yl)-6-((S)-3,4-dimethylpiperazin-1-yl)-2,4-difluorophenyl)-1-methyl-6-oxo-4-(trifluoromethyl)-1,6-dihydropyridine-3-carboxamide]	1320 nM	36.7 nM	9.79 nM		
C[C@H]1CN(c2ccc(-c3c(F)cc(N4CCN(C)[C@@H](C)C4)c(NC(=O)c4c[nH]c(=O)cc4C(F)(F)F)c3F)cn2)CCO1 [Example 171, N-(6-((S)-3,4-dimethylpiperazin-1-yl)-2,4-difluoro-3-(6-((S)-2-methylmorpholino)pyridin-3-yl)phenyl)-6-oxo-4-(trifluoromethyl)-1,6-dihydropyridine-3-carboxamide]	51.9 nM	16.1 nM	0.49 nM		
C[C@H]1CN(c2cc(F)c(C3=CCN(C(=O)OC4CC(F)(F)C4)C3)c(F)c2NC(=O)c2c[nH]c(=O)cc2C(F)(F)F)CCN1C [Example 45, 3,3-Difluorocyclobutyl (S)-3-(4-(3,4-dimethylpiperazin-1-yl)-2,6-difluoro-3-(6-oxo-4-(trifluoromethyl)-1,6-dihydropyridine-3-carboxamido)phenyl)-2,5-dihydro-1H-pyrrole-1-carboxylate]	76.7 nM	12.1 nM	1.32 nM		
C[C@H]1CN(c2ncc(-c3c(F)cc(N4CCN(C)[C@@H](C)C4)c(NC(=O)c4cn(C)c(=O)cc4C(F)(F)F)c3F)cn2)C[C@H](C)O1 [Example 163, N-(3-(2-((2S,6S)-2,6-dimethylmorpholino)pyrimidin-5-yl)-6-((S)-3,4-dimethylpiperazin-1-yl)-2,4-difluorophenyl)-1-methyl-6-oxo-4-(trifluoromethyl)-1,6-dihydropyridine-3-carboxamide]	83.4 nM	15.3 nM	1.1 nM		
C[C@@H]1CN(c2c(F)cc(-c3cnc(N4CCOCC4)nc3)cc2NC(=O)c2c[nH]c(=O)cc2C(F)(F)F)C[C@H](C)N1C [reference compound]				3540 nM	77 nM
C[C@@H]1CN(c2cc(F)c(-c3cnc(N4CCOCC4)nc3)cc2NC(=O)c2c[nH]c(=O)cc2C(F)(F)F)C[C@H](C)N1C [reference compound]				25 nM	
C[C@@H]1CN(c2cc(F)c(C3=CCCN(C(=O)OC4(C)CCC4)C3)c(F)c2NC(=O)c2c[nH]c(=O)cc2C(F)F)C[C@H](C)N1C [Example 22, 1-Methylcyclobutyl 5-(3-(4-(difluoromethyl)-6-oxo-1,6-dihydropyridine-3-carboxamido)-2,6-difluoro-4-((3S,5R)-3,4,5-trimethylpiperazin-1-yl)phenyl)-3,6-dihydropyridine-1(2H)-carboxylate]		23 nM	1.74 nM		
C[C@@H]1CN(c2cc(F)c(-c3ccnc(OCC4CC4)c3)c(F)c2NC(=O)c2c[nH]c(=O)cc2C(F)(F)F)C[C@H](C)N1C [Example 3, N-(3-(2-(cyclopropylmethoxy)pyridin-4-yl)-2,4-difluoro-6-((3S,5R)-3,4,5-trimethylpiperazin-1-yl)phenyl)-6-oxo-4-(trifluoromethyl)-1,6-dihydropyridine-3-carboxamide]		26.6 nM	3.39 nM		
